Assay results from ChEMBL document CHEMBL5034004, “Discovery of M3 Antagonist-PDE4 Inhibitor Dual Pharmacology Molecules for the Treatment of Chronic Obstructive Pulmonary Disease” (J Med Chem, 2021).
Each block holds one compound with its values, some of them ahead of it.

Columns and labels:
[1] = Antiinflammatory activity in human PBMCs assessed as inhibition of LPS-induced TNF-alpha release measured after 18 hrs by ELISA; assay type: functional, tissue-based, PBMC; conditions: for pIC50: pbmc; for IC50: Homo sapiens, PBMC, 18 h
[2] = Antagonist activity at muscarinic M3 receptor in guinea pig trachea assessed as inhibition of carbachol-induced contraction; assay type: tissue-based, Cavia porcellus
[3] = target: Muscarinic acetylcholine receptor M3 (Homo sapiens, UniProt P20309); assay: Displacement of [3H]-N-methyl Scopolamine Chloride from human M3 receptor membranes incubated for 2 hrs by scintillation counting analysis; assay type: cell membranes, Cell membrane
Chain of Muscarinic acetylcholine receptor M3 (Homo sapiens, UniProt P20309) (P20309 whole entry): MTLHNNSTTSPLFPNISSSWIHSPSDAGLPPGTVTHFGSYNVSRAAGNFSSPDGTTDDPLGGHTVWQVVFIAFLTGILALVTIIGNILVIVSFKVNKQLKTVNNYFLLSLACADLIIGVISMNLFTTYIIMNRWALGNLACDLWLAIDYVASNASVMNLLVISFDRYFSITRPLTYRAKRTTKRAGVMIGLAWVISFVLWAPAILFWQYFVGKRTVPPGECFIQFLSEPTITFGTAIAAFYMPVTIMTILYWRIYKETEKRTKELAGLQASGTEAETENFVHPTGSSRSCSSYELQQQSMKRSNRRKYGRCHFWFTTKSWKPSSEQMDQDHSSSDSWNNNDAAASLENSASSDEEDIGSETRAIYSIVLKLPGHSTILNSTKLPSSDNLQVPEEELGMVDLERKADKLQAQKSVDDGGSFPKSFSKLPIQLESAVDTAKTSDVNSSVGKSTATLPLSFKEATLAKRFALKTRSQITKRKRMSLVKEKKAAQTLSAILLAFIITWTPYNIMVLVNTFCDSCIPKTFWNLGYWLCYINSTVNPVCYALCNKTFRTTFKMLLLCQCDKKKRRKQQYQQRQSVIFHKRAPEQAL

[4] = target: 3',5'-cyclic-AMP phosphodiesterase 4B (Homo sapiens, UniProt Q07343); assay: Inhibition of human recombinant PDE4B2 assessed as […] in cAMP level incubated for 2 hrs by LANCE Ultra cAMP TR-FRET assay
Chain of 3',5'-cyclic-AMP phosphodiesterase 4B (Q07343 whole entry): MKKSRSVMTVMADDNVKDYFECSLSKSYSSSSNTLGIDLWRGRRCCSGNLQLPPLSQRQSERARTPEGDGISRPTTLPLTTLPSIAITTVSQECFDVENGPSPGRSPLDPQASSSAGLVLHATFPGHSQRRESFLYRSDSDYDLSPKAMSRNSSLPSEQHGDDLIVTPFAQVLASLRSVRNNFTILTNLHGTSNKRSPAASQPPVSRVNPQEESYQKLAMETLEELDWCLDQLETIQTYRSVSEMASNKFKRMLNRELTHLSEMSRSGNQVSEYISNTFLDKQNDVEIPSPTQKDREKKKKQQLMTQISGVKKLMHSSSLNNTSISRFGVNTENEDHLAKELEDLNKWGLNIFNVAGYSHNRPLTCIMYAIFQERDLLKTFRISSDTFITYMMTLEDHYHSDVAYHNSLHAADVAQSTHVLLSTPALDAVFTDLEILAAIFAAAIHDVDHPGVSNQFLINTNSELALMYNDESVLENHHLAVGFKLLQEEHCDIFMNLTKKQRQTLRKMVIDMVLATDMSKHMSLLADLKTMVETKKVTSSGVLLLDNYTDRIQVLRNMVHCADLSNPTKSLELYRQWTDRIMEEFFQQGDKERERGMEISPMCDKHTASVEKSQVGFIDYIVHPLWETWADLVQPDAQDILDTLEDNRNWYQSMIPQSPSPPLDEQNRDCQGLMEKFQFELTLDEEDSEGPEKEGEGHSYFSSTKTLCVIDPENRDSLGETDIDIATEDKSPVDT

[5] = target: Muscarinic acetylcholine receptor M3 (Rattus norvegicus, UniProt P08483); assay: Antagonist activity at muscarinic M3 receptor in rat trachea assessed as inhibition of carbachol-induced contraction; assay type: functional, tissue-based
Chain of Muscarinic acetylcholine receptor M3 (Rattus norvegicus, UniProt P08483) (P08483 whole entry): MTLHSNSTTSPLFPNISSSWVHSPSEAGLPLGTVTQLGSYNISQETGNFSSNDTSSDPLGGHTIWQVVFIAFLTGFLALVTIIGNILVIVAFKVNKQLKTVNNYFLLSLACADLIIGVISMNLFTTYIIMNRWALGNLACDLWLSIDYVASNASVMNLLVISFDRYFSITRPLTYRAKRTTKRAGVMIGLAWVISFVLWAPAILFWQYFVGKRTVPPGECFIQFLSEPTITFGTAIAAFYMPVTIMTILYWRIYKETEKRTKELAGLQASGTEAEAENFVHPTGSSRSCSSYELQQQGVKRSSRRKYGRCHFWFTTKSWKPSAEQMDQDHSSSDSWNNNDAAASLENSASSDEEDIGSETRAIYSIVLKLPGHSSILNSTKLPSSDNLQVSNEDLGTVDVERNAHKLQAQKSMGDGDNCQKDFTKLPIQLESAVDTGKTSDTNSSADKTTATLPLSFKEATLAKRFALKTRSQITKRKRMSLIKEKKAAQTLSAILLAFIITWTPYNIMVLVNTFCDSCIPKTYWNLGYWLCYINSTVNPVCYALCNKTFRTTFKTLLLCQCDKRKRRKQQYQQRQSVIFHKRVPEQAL

[6] = Kinetic solubility of compound in PBS at pH 7.4 […] incubated for 2 hrs by LC-UV and LC-MS analysis; assay type: physicochemical; conditions: read-out: Kinetic_solubility
[7] = target: 3',5'-cyclic phosphodiesterase; assay: Inhibition of PDE4 in human U-937 cells assessed as […] in cAMP level by LANCE cAMP Assay; assay type: cell-based

pIC50 [1]: 8.4
Structure (SMILES): COc1ccc([C@H](Cc2c(Cl)c[n+]([O-])cc2Cl)OC(=O)c2ccc(CNC(C(=O)OCC3CCN(C)CC3)c3ccccc3)s2)cc1OC (stereo in doubt; 91h)

Structure (SMILES): COc1ccc([C@H](Cc2c(Cl)c[n+]([O-])cc2Cl)OC(=O)c2ccc(F)c(CN(C(=O)O[C@H]3CN4CCC3CC4)c3ccccc3)c2)cc1OC
IC50 [1]: 2 nM
pIC50 [2]: 9
Ki [3]: 0.2 nM
IC50 [4]: 7.94 nM

pIC50 [1]: 8.1
IC50 [5]: 20 nM
Structure (SMILES): COc1ccc([C@H](Cc2c(Cl)c[n+]([O-])cc2Cl)OC(=O)c2ccc(CNC(C(=O)OC[C@H]3CCN3C)c3ccccc3)s2)cc1OC (stereo in doubt; 91i)

Structure (SMILES): COc1cc([C@H](Cc2c(Cl)c[n+]([O-])cc2Cl)OC(=O)c2ccc(CN(C(=O)O[C@H]3CN4CCC3CC4)c3ccccc3F)s2)ccc1OC(F)F
pIC50 [2]: 8.2
Ki [3]: 0.251 nM
solubility kinetic at 2 h [6]: < 5 µM

Structure (SMILES): COc1ccc([C@H](Cc2c(Cl)c[n+]([O-])cc2Cl)OC(=O)c2cccc(CNC(C(=O)O[C@H]3CN4CCC3CC4)c3ccccc3)c2)cc1OC (stereo in doubt; 89)
IC50 [1]: 1.26 nM
pIC50 [2]: 9
Ki [3]: 0.158 nM
IC50 [4]: 3.98 nM

Structure (SMILES): COc1ccc([C@H](Cc2c(Cl)c[n+]([O-])cc2Cl)OC(=O)c2ccc(CN(C(=O)O[C@H]3CN4CCC3CC4)c3ccccc3)cc2)cc1OC
IC50 [1]: 2.51 nM
pIC50 [2]: 8.7
Ki [3]: 0.158 nM
IC50 [4]: 2 nM

Structure (SMILES): COc1ccc([C@H](Cc2c(Cl)c[n+]([O-])cc2Cl)OC(=O)c2ccc(CN(C(=O)O[C@H]3CN4CCC3CC4)c3cccc(C(F)F)c3)s2)cc1OC
IC50 [1]: 0.2 nM
pIC50 [2]: 8.8
Ki [3]: 3.16 nM
IC50 [4]: 0.316 nM

pIC50 [1]: 8.8
IC50 [5]: 5.01 nM
Structure (SMILES): COc1ccc([C@H](Cc2c(Cl)c[n+]([O-])cc2Cl)OC(=O)c2ccc(CNC(C(=O)OCC3CCN(C)CC3)c3ccccc3)s2)cc1OC (stereo in doubt; 92h)

Structure (SMILES): COc1ccc([C@H](Cc2c(Cl)c[n+]([O-])cc2Cl)OC(=O)Cc2ccc(CN(C(=O)O[C@H]3CN4CCC3CC4)c3ccccc3)cc2)cc1OC
Ki [3]: 0.316 nM
IC50 [4]: 10 nM

Structure (SMILES): COc1ccc([C@H](Cc2c(Cl)c[n+]([O-])cc2Cl)OC(=O)c2cccc(CN(C(=O)O[C@H]3CN4CCC3CC4)c3ccccc3)c2)cc1OC
IC50 [1]: 5.01 nM
pIC50 [2]: 9.2
pIC50 [7]: 9
Ki [3]: 0.316 nM
IC50 [4]: 6.31 nM

Structure (SMILES): COc1ccc([C@H](Cc2c(Cl)c[n+]([O-])cc2Cl)OC(=O)c2cccc(CNC(C(=O)O[C@H]3CN4CCC3CC4)c3ccccc3)c2)cc1OC (stereo in doubt; 90)
pIC50 [1]: 8.6
pIC50 [2]: 9.1
Ki [3]: 0.2 nM
IC50 [4]: 7.94 nM

Structure (SMILES): COc1ccc([C@H](Cc2c(Cl)c[n+]([O-])cc2Cl)OC(=O)c2ccc(CN(C)C(C(=O)O[C@H]3CN4CCC3CC4)c3ccccc3)s2)cc1OC (stereo in doubt; 91c)
IC50 [1]: 3.16 nM
Ki [3]: 0.631 nM
IC50 [4]: 2 nM

Structure (SMILES): O=C(O[C@@H](Cc1c(Cl)c[n+]([O-])cc1Cl)c1ccc(OC(F)F)c(OCC2CC2)c1)c1cccc(CNC(C(=O)O[C@H]2CN3CCC2CC3)c2ccccc2)c1 (some centres not stated)
pIC50 [2]: 7.6
pIC50 [7]: 9.5
Ki [3]: 0.631 nM

Structure (SMILES): COc1ccc([C@H](Cc2c(Cl)c[n+]([O-])cc2Cl)OC(=O)c2ccc(CNC(C(=O)OC3C[C@H]4CC[C@H](C3)N4C)c3ccccc3)s2)cc1OC (stereo in doubt; 92d)
Ki [3]: 10 nM
pIC50 [4]: 9

Structure (SMILES): COc1ccc([C@H](Cc2c(Cl)c[n+]([O-])cc2Cl)OC(=O)c2ccc(CN(C(=O)O[C@H]3CN4CCC3CC4)c3cccnc3)s2)cc1OC
Ki [3]: 7.94 nM

Structure (SMILES): O=C(O[C@@H](Cc1c(Cl)c[n+]([O-])cc1Cl)c1ccc(OC(F)F)c(OCC2CC2)c1)c1cccc(CN(C(=O)O[C@H]2CN3CCC2CC3)c2ccccc2)c1
pIC50 [2]: 6.5
pIC50 [7]: 9.9
Ki [3]: 1.26 nM

Structure (SMILES): CCOc1cc([C@H](Cc2c(Cl)c[n+]([O-])cc2Cl)OC(=O)c2ccc(CN(C(=O)O[C@H]3CN4CCC3CC4)c3ccccc3F)s2)ccc1OC(F)F
pIC50 [2]: 8.3
Ki [3]: 0.316 nM
solubility kinetic at 2 h [6]: < 5 µM

Structure (SMILES): COc1ccc([C@H](Cc2c(Cl)c[n+]([O-])cc2Cl)OC(=O)c2cccc(NC(C(=O)O[C@H]3CN4CCC3CC4)c3ccccc3)c2)cc1OC (some centres not stated)
pIC50 [2]: 7.7
pIC50 [7]: 9.8
Ki [3]: 0.398 nM

Structure (SMILES): COc1ccc([C@H](Cc2c(Cl)c[n+]([O-])cc2Cl)OC(=O)c2ccc(CNC(C(=O)OC[C@H]3CN4CCC3CC4)c3ccccc3)s2)cc1OC (stereo in doubt; 91g)
IC50 [1]: 3.16 nM
IC50 [5]: 20 nM

Structure (SMILES): O=C(O[C@@H](Cc1c(Cl)c[n+]([O-])cc1Cl)c1ccc(OC(F)F)c(OCC2CC2)c1)c1cccc(S(=O)(=O)NC(C(=O)O[C@H]2CN3CCC2CC3)c2ccccc2)c1 (some centres not stated)
pIC50 [2]: 7.3
pIC50 [7]: 10
Ki [3]: 1.26 nM

Structure (SMILES): COc1ccc([C@H](Cc2c(Cl)c[n+]([O-])cc2Cl)OC(=O)c2ccc(CN(C)C(C(=O)O[C@H]3CN4CCC3CC4)c3ccccc3)s2)cc1OC (stereo in doubt; 92c)
pIC50 [1]: 8.7
pKi [3]: 9.2
IC50 [4]: 3.16 nM

Structure (SMILES): COc1ccc([C@H](Cc2c(Cl)c[n+]([O-])cc2Cl)OC(=O)c2cccc(CNC(C(=O)O[C@H]3CN4CCC3CC4)c3ccccc3)c2)cc1OC (stereo in doubt; 86a)
pIC50 [2]: 8.2
pIC50 [7]: 9.5
Ki [3]: 0.398 nM

Structure (SMILES): O=C(O[C@@H](Cc1c(Cl)c[n+]([O-])cc1Cl)c1ccc(OC(F)F)c(OCC2CC2)c1)c1cccc(NC(C(=O)O[C@H]2CN3CCC2CC3)c2ccccc2)c1 (some centres not stated)
pIC50 [2]: < 6
pIC50 [7]: 9
Ki [3]: 0.794 nM

IC50 [1]: 3.16 nM
IC50 [5]: 79.4 nM
Ki [3]: 12.6 nM
IC50 [4]: 1 nM
Structure (SMILES): COc1ccc([C@H](Cc2c(Cl)c[n+]([O-])cc2Cl)OC(=O)c2ccc(CNC(C(=O)OCCN(C)C)c3ccccc3)s2)cc1OC (stereo in doubt; 91j)

Structure (SMILES): COc1ccc([C@H](Cc2c(Cl)c[n+]([O-])cc2Cl)OC(=O)c2ccc(CNC(C(=O)O[C@H]3CN4CCC3CC4)c3ccccc3F)s2)cc1OC (stereo in doubt; 92b)
pIC50 [1]: 8.9
pIC50 [2]: 8.5
Ki [3]: 0.158 nM
pIC50 [4]: 9.2

Structure (SMILES): COc1ccc([C@H](Cc2c(Cl)c[n+]([O-])cc2Cl)OC(=O)c2ccc(CNC(C(=O)O[C@H]3CN4CCC3CC4)c3ccccc3F)s2)cc1OC (stereo in doubt; 91b)
IC50 [1]: 1 nM
pIC50 [2]: 8.6
Ki [3]: 0.1 nM
IC50 [4]: 0.631 nM

Structure (SMILES): COc1ccc([C@H](Cc2c(Cl)c[n+]([O-])cc2Cl)OC(=O)c2ccc(CNC(C(=O)OC3C[C@H]4CC[C@H](C3)N4C)c3ccccc3)s2)cc1OC (stereo in doubt; 91d)
IC50 [1]: 2.51 nM
IC50 [5]: 10 nM
Ki [3]: 0.501 nM
IC50 [4]: 1 nM

IC50 [5]: 12.6 nM
Ki [3]: 0.398 nM
IC50 [4]: 0.631 nM
Structure (SMILES): COc1ccc([C@H](Cc2c(Cl)c[n+]([O-])cc2Cl)OC(=O)c2ccc(CNC(C(=O)OCCN(C)C)c3ccccc3)s2)cc1OC (stereo in doubt; 92j)

Structure (SMILES): COc1ccc([C@H](Cc2c(Cl)c[n+]([O-])cc2Cl)OC(=O)c2cccc(S(=O)(=O)NC(C(=O)O[C@H]3CN4CCC3CC4)c3ccccc3)c2)cc1OC (some centres not stated)
pIC50 [2]: 8.2
pIC50 [7]: 9.6
Ki [3]: 0.631 nM

Structure (SMILES): COc1ccc([C@H](Cc2c(Cl)c[n+]([O-])cc2Cl)OC(=O)c2ccc(CN(C(=O)O[C@H]3CN4CCC3CC4)c3cccc(O)c3)s2)cc1OC
IC50 [1]: 0.398 nM
pIC50 [2]: 9
Ki [3]: 0.316 nM
IC50 [4]: 0.794 nM

Structure (SMILES): O=C(O[C@@H](Cc1c(Cl)c[n+]([O-])cc1Cl)c1ccc(OC(F)F)c(OCC2CC2)c1)c1ccc(CN(C(=O)O[C@H]2CN3CCC2CC3)c2ccccc2F)s1
pIC50 [2]: 8.2
Ki [3]: 0.2 nM
solubility kinetic at 2 h [6]: < 5 µM

Structure (SMILES): COc1ccc([C@H](Cc2c(Cl)c[n+]([O-])cc2Cl)OC(=O)c2ccc(CN(C(=O)O[C@H]3CN4CCC3CC4)c3nccs3)s2)cc1OC
IC50 [1]: 0.501 nM
pIC50 [2]: 8.4
Ki [3]: 0.794 nM
IC50 [4]: 0.631 nM

IC50 [1]: 3.98 nM
IC50 [5]: 1 nM
Ki [3]: 7.94 nM
IC50 [4]: 3.16 nM
Structure (SMILES): COc1ccc([C@H](Cc2c(Cl)c[n+]([O-])cc2Cl)OC(=O)c2ccc(CNC(C(=O)O[C@@H]3CCN(C)C3)c3ccccc3)s2)cc1OC (stereo in doubt; 91f)

Structure (SMILES): CC(C)Oc1cc([C@H](Cc2c(Cl)c[n+]([O-])cc2Cl)OC(=O)c2ccc(CN(C(=O)O[C@H]3CN4CCC3CC4)c3ccccc3F)s2)ccc1OC(F)F
pIC50 [2]: 7.5
Ki [3]: 0.316 nM
solubility kinetic at 2 h [6]: < 5 µM

IC50 [1]: 1.58 nM
IC50 [5]: 20 nM
Ki [3]: 10 nM
IC50 [4]: 1 nM
Structure (SMILES): COc1ccc([C@H](Cc2c(Cl)c[n+]([O-])cc2Cl)OC(=O)c2ccc(CNC(C(=O)OC3CCN(C)CC3)c3ccccc3)s2)cc1OC (stereo in doubt; 91e)

Structure (SMILES): COc1ccc([C@H](Cc2c(Cl)c[n+]([O-])cc2Cl)OC(=O)c2ccc(CNC(C(=O)OC[C@H]3CN4CCC3CC4)c3ccccc3)s2)cc1OC (stereo in doubt; 92g)
pIC50 [1]: 8.4
IC50 [5]: 3.16 nM

IC50 [5]: 5.01 nM
Structure (SMILES): COc1ccc([C@H](Cc2c(Cl)c[n+]([O-])cc2Cl)OC(=O)c2ccc(CNC(C(=O)OC[C@H]3CCN3C)c3ccccc3)s2)cc1OC (stereo in doubt; 92i)

Structure (SMILES): COc1ccc([C@H](Cc2c(Cl)c[n+]([O-])cc2Cl)OC(=O)c2ccc(CN(C(=O)O[C@H]3CN4CCC3CC4)c3cccc(F)c3)s2)cc1OC
IC50 [1]: 0.631 nM
pIC50 [2]: 8.1
Ki [3]: 0.2 nM
IC50 [4]: 1 nM

Structure (SMILES): COc1ccc([C@H](Cc2c(Cl)c[n+]([O-])cc2Cl)OC(=O)c2ccc(CN(C(=O)O[C@H]3CN4CCC3CC4)c3ccccc3)cc2F)cc1OC
IC50 [1]: 0.126 nM
pIC50 [2]: 8.6
Ki [3]: 0.158 nM
IC50 [4]: 2.51 nM
